We go through one compound from article PMC9631063, “Schisandrin B Attenuates Diabetic Cardiomyopathy by Targeting MyD88 and Inhibiting MyD88‐Dependent Inflammation” (Advanced Science, 2022).

For the assay, the target named is T1, rhMyD88(TIR) (Homo sapiens, UniProt Q99836).
T1 construct: gene MYD88; Results text calls it only rhMyD88
The experiment in a line: isothermal titration calorimetry (Nano-ITC). Format: binding. A general note: In ITC the heat of successive injections is recorded.

T1 sequence (Q99836 159-296 limits assumed): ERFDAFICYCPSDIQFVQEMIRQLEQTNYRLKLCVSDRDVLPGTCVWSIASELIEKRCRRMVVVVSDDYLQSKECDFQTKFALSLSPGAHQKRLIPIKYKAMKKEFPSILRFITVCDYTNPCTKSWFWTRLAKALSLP

With `COc1cc2c(c(OC)c1OC)-c1c(cc3c(c1OC)OCO3)CC(C)C(C)C2` (stereo not shown) [Schisandrin B], the Kd (in general, the constant that tells how readily two partners part at equilibrium) was determined as 125 µM.
